Experimental data published in patent US20180178030A1, “PHOTODYNAMIC THERAPEUTIC METHOD FOR TREATING DENTAL INFECTION” (Olighter Co. Ltd., priority 2016, published 2018).

Legend:
[1] = tested on: G (+) bacteria (Streptococcus mutans, Streptococcus sobrinus); experiment: in vitro bacterial disinfection by photodynamic therapy method (FIG. 8), G (+) bacteria; format: cell-based; conditions: photosensitizer plus infrared laser ray 808 nanometers, irradiation about 5 minutes
Text: (§1) One group assay represents the different bacterial disinfection by using the photodynamic therapy method in vitro with a specific irradiated wavelength of the light, and the other group assay represents the different bacterial disinfection by using the photodynamic therapy method in vitro with a specific compound X and the specific irradiated wavelength of the light.
(§2) The light is infrared laser ray. The specific irradiated wavelength of the infrared laser ray of is 808 nanometers. The specific compound X is a photosensitizer. The photosensitizer is the indocyanine green dye. The period of irradiating the bacteria is about 5 minutes. The bacteria include gram positive (G (+)) bacteria and gram negative (G (−)) bacteria. The G (+) bacteria include a Streptococcus mutans (S. mutans) and a Streptococcus sobrinus (S. sobrinus). The G (−) bacteria include an Aggregatibacter actinomycetemcomitans (A. actinomycetemcomitans), a Fusobacterium nucleatum (F. nucleatum), and a Porphyromonas gingivalis (P. gingivalis).
(§3) Referring to FIG. 8, when the photodynamic therapy method in vitro uses the specific photosensitizer and the specific irradiated wavelength of the light, the G (+) bacterial show the percentage growth rate as zero, and the G (−) bacteria show the percentage growth rate as less than 20%.

[2] = tested on: G (−) bacteria (Aggregatibacter actinomycetemcomitans, Fusobacterium nucleatum, Porphyromonas gingivalis); experiment: in vitro bacterial disinfection by photodynamic therapy method (FIG. 8), G (−) bacteria; format: cell-based; conditions: photosensitizer plus infrared laser ray 808 nanometers, irradiation about 5 minutes
Text: as §1, §2, §3

CC1(C)C(/C=C/C=C/C=C/C=C2\N(CCCCS(=O)(=O)O)c3ccc4ccccc4c3C2(C)C)=[N+](CCCCS(=O)(=O)[O-])c2ccc3ccccc3c21 [specific photosensitizer, indocyanine green]
percentage growth rate of the bacteria [1]: zero
percentage growth rate of the bacteria [2]: less than 20%
